Test results as given in the supplement of paper PMC10307832.

Key:
Assay in all cases: relative viability (nuclei count vs DMSO), 5 days (fraction); higher = more cells survive
Neratinib + Dasatinib = compound: CCOc1cc2ncc(C#N)c(Nc3ccc(OCc4ccccn4)c(Cl)c3)c2cc1NC(=O)/C=C/CN(C)C [Neratinib] + Cc1nc(Nc2ncc(C(=O)Nc3c(C)cccc3Cl)s2)cc(N2CCN(CCO)CC2)n1 [Dasatinib] (partner 0.075 µM)
In short: (§1)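 Five library-drug doses in √10 steps were combined with a fixed anchor-drug dose, or a single drug was given alone, by pin tool to lung cancer cell lines in 1536-well plates the day after seeding. Nuclei were stained and counted after 5 days. Relative viability is the nuclei count in treated wells over that in vehicle wells, taken as the median of duplicate plates.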

Neratinib + Crizotinib = compound: CCOc1cc2ncc(C#N)c(Nc3ccc(OCc4ccccn4)c(Cl)c3)c2cc1NC(=O)/C=C/CN(C)C [Neratinib] + C[C@@H](Oc1cc(-c2cnn(C3CCNCC3)c2)cnc1N)c1c(Cl)ccc(F)c1Cl [Crizotinib] (partner 1 µM)
In short: as §1

Neratinib + Pictilisib = compound: CCOc1cc2ncc(C#N)c(Nc3ccc(OCc4ccccn4)c(Cl)c3)c2cc1NC(=O)/C=C/CN(C)C [Neratinib] + CS(=O)(=O)N1CCN(Cc2cc3nc(-c4cccc5[nH]ncc45)nc(N4CCOCC4)c3s2)CC1 [Pictilisib] (partner 1 µM)
In short: as §1

Neratinib + Vorinostat = compound: CCOc1cc2ncc(C#N)c(Nc3ccc(OCc4ccccn4)c(Cl)c3)c2cc1NC(=O)/C=C/CN(C)C [Neratinib] + O=C(CCCCCCC(=O)Nc1ccccc1)NO [Vorinostat] (partner 1 µM)
In short: as §1

| Cell Line | relative viability (Neratinib + Dasatinib; first compound 0.01 µM) | relative viability (Neratinib + Dasatinib; first compound 0.03162 µM) | relative viability (Neratinib + Dasatinib; first compound 0.1 µM) | relative viability (Neratinib + Dasatinib; first compound 0.3162 µM) | relative viability (Neratinib + Dasatinib; first compound 1 µM) | relative viability (Neratinib + Crizotinib; first compound 0.01 µM) | relative viability (Neratinib + Crizotinib; first compound 0.03162 µM) | relative viability (Neratinib + Crizotinib; first compound 0.1 µM) | relative viability (Neratinib + Crizotinib; first compound 0.3162 µM) | relative viability (Neratinib + Crizotinib; first compound 1 µM) | relative viability (Neratinib + Pictilisib; first compound 0.01 µM) | relative viability (Neratinib + Pictilisib; first compound 0.03162 µM) | relative viability (Neratinib + Pictilisib; first compound 0.1 µM) | relative viability (Neratinib + Pictilisib; first compound 0.3162 µM) | relative viability (Neratinib + Pictilisib; first compound 1 µM) | relative viability (Neratinib + Vorinostat; first compound 0.01 µM) | relative viability (Neratinib + Vorinostat; first compound 0.03162 µM) | relative viability (Neratinib + Vorinostat; first compound 0.1 µM) | relative viability (Neratinib + Vorinostat; first compound 0.3162 µM) | relative viability (Neratinib + Vorinostat; first compound 1 µM) |
| --- | --- | --- | --- | --- | --- | --- | --- | --- | --- | --- | --- | --- | --- | --- | --- | --- | --- | --- | --- | --- |
| NCI-H23 | 0.695 | 0.876 | 0.779 | 0.825 | 0.537 | 0.697 | 0.572 | 0.413 | 0.486 | 0.27 | 0.553 | 0.428 | 0.437 | 0.483 | 0.372 | 0.699 | 0.7 | 0.641 | 0.493 | 0.491 |
| NCI-H322M | 0.24 | 0.237 | 0.237 | 0.228 | 0.293 |  | 1.02 | 0.791 | 0.659 | 0.291 | 0.528 | 0.455 | 0.499 | 0.333 | 0.327 | 0.98 | 0.859 | 0.822 | 0.524 | 0.445 |
| NCI-H358 | 0.131 | 0.131 | 0.104 | 0.146 | 0.126 | 0.65 | 0.409 | 0.391 | 0.161 | 0.182 | 0.302 | 0.336 | 0.231 | 0.295 | 0.228 | 0.659 | 0.538 | 0.282 | 0.148 | 0.106 |
| NCI-H441 | 0.696 | 0.488 | 0.611 | 0.305 | 0.175 | 0.73 | 0.74 | 0.587 | 0.606 | 0.268 | 0.508 | 0.482 | 0.456 | 0.313 | 0.191 | 0.794 | 0.817 | 0.747 | 0.777 | 0.633 |
| NCI-H460 | 0.524 | 0.527 | 0.446 | 0.455 | 0.317 | 1.2 | 0.743 |  | 0.641 | 0.355 | 0.325 | 0.384 | 0.294 | 0.323 | 0.32 | 0.779 | 0.984 | 0.429 | 0.716 | 0.518 |
| NCI-H520 | 0.212 | 0.199 | 0.228 | 0.171 | 0.147 | 0.908 | 0.929 | 0.773 | 0.689 | 0.429 | 0.297 | 0.377 | 0.222 | 0.215 | 0.188 | 0.759 | 0.686 |  | 0.615 | 0.509 |
| NCI-H596 |  | 0.659 | 0.749 | 0.5 | 0.436 | 0.944 | 1.09 | 1.04 | 0.903 | 0.861 | 0.374 | 0.417 | 0.35 | 0.4 | 0.329 | 0.5 | 0.641 | 0.631 | 0.622 | 0.73 |
| NCI-H647 | 0.171 | 0.198 | 0.207 | 0.129 | 0.0912 | 1.21 | 0.978 | 0.852 | 0.835 | 0.427 | 0.437 | 0.506 | 0.456 | 0.364 | 0.183 | 0.634 | 0.595 | 0.488 | 0.401 | 0.0941 |
| NCI-H650 | 0.489 | 0.493 | 0.477 | 0.416 | 0.463 | 0.866 | 0.699 | 0.78 |  | 0.421 | 0.974 | 0.898 | 0.729 |  | 0.644 | 0.406 | 0.399 | 0.451 | 0.403 | 0.367 |
| NCI-H661 | 0.924 | 0.741 | 0.5 | 0.317 | 0.338 | 1.06 | 0.983 | 0.989 | 0.828 | 0.343 | 0.507 | 0.399 | 0.303 | 0.24 | 0.272 | 0.866 | 0.729 | 0.583 | 0.657 | 0.445 |
| NCI-H727 | 0.36 | 0.359 | 0.335 | 0.333 | 0.225 | 0.844 | 1.02 |  | 0.597 | 0.423 | 0.337 | 0.256 |  | 0.516 | 0.258 | 1.05 | 1.1 |  | 1.11 | 0.899 |
| NCI-H838 | 0.272 | 0.255 | 0.278 | 0.287 | 0.267 | 0.995 | 0.812 | 0.833 | 0.67 | 0.476 | 0.466 | 0.54 | 0.473 | 0.375 | 0.25 |  | 0.794 | 0.705 | 0.735 | 0.619 |
| NCI-H1355 | 0.754 | 0.745 | 0.629 | 0.584 | 0.39 | 1.12 | 1.11 | 0.949 | 0.846 | 0.31 | 0.485 | 0.482 | 0.395 | 0.365 | 0.232 | 0.724 | 0.649 | 0.591 | 0.602 | 0.447 |
| NCI-H1437 | 0.443 | 0.396 | 0.475 | 0.278 | 0.3 | 1.04 | 0.853 | 0.897 | 0.789 | 0.822 | 0.474 | 0.553 | 0.356 | 0.325 | 0.343 | 0.916 | 0.906 | 0.799 | 0.843 | 0.85 |
| NCI-H1650 | 0.309 | 0.31 | 0.307 | 0.304 | 0.376 | 0.922 | 1.03 | 0.705 | 0.568 | 0.623 | 0.565 | 0.682 | 0.513 | 0.531 | 0.517 | 0.381 | 0.615 | 0.49 | 0.419 | 0.447 |
